Test results reported in ChEMBL document CHEMBL1926576, “Fragment based lead discovery of small molecule inhibitors for the EPHA4 receptor tyrosine kinase” (Eur J Med Chem, 2012).

How the values were obtained:
[1] = target: Serine/threonine-protein kinase PAK 4 (Homo sapiens) (UniProt O96013); experiment: Inhibition of PAK4 assessed as residual activity at 10 uM using [33P-ATP] by radiometric filter binding assay
[2] = target: Serine/threonine-protein kinase pim-1 (Homo sapiens) (UniProt P11309); experiment: Inhibition of PIM1 assessed as residual activity at 10 uM using [33P-ATP] by radiometric filter binding assay
[3] = Inhibition of PKA assessed as residual activity at 10 uM using [33P-ATP] by radiometric filter binding assay
[4] = target: Protein kinase C gamma type (Homo sapiens) (UniProt P05129); experiment: Inhibition of PKCgamma assessed as residual activity at 10 uM using [33P-ATP] by radiometric filter binding assay
[5] = target: Serine/threonine-protein kinase D1 (Homo sapiens) (UniProt Q15139); experiment: Inhibition of PKD1 assessed as residual activity at 10 uM using [33P-ATP] by radiometric filter binding assay
Sequence of Serine/threonine-protein kinase D1 (Homo sapiens) (Q15139 whole entry): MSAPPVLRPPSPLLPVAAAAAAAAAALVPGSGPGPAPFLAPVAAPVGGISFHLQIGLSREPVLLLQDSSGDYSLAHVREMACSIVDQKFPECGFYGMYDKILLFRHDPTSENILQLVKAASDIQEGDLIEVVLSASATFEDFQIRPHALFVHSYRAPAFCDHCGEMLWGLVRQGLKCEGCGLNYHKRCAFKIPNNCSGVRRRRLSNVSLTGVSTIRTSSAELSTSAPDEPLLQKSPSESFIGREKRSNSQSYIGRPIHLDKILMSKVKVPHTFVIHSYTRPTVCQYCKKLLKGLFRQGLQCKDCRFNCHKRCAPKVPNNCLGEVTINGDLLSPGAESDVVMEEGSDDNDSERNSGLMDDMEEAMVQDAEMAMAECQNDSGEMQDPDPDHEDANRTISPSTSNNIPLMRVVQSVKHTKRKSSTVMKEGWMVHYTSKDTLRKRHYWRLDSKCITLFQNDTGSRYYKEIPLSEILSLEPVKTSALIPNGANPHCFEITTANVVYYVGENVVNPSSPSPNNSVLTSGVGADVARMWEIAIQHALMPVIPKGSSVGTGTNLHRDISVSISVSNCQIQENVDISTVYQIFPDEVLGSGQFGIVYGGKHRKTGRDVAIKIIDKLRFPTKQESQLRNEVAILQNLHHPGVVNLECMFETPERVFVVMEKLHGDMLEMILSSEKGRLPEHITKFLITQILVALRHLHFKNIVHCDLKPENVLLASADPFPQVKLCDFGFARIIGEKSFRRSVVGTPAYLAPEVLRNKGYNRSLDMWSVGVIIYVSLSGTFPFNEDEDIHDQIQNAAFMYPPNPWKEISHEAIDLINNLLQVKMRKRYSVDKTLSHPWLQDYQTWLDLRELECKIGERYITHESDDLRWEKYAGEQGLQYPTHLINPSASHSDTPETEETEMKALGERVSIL

[6] = target: Serine/threonine-protein kinase PLK1 (Homo sapiens) (UniProt P53350); experiment: Inhibition of PLK1 assessed as residual activity at 10 uM using [33P-ATP] by radiometric filter binding assay
[7] = target: MAP kinase-activated protein kinase 5 (Homo sapiens) (UniProt Q8IW41); experiment: Inhibition of PRAK assessed as residual activity at 10 uM using [33P-ATP] by radiometric filter binding assay
[8] = target: Receptor-interacting serine/threonine-protein kinase 2 (Homo sapiens) (UniProt O43353); experiment: Inhibition of RIPK2 assessed as residual activity at 10 uM using [33P-ATP] by radiometric filter binding assay
Sequence of Receptor-interacting serine/threonine-protein kinase 2 (Homo sapiens) (O43353 whole entry): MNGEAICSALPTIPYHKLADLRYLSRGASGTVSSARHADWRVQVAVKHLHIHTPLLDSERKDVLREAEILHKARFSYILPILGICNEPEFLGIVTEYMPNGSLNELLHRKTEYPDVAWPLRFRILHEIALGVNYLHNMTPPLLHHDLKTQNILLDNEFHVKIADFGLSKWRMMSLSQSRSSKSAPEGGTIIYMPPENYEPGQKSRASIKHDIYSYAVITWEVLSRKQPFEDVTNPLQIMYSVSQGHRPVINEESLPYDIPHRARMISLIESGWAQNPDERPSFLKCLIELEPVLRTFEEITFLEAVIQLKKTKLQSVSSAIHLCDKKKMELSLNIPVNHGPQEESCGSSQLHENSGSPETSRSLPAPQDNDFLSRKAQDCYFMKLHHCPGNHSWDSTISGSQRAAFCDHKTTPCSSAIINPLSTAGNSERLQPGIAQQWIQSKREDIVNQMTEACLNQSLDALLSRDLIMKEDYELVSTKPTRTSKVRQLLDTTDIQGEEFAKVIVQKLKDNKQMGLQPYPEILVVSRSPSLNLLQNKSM

[9] = target: Ribosomal protein S6 kinase beta-1 (Homo sapiens) (UniProt P23443); experiment: Inhibition of S6K1 assessed as residual activity at 10 uM using [33P-ATP] by radiometric filter binding assay
[10] = target: Mitogen-activated protein kinase kinase kinase 7 (Homo sapiens) (UniProt O43318); experiment: Inhibition of TAK1 assessed as residual activity at 10 uM using [33P-ATP] by radiometric filter binding assay
[11] = target: Serine/threonine-protein kinase TBK1 (Homo sapiens) (UniProt Q9UHD2); experiment: Inhibition of TBK1 assessed as residual activity at 10 uM using [33P-ATP] by radiometric filter binding assay
Sequence of Serine/threonine-protein kinase TBK1 (Homo sapiens) (Q9UHD2 whole entry): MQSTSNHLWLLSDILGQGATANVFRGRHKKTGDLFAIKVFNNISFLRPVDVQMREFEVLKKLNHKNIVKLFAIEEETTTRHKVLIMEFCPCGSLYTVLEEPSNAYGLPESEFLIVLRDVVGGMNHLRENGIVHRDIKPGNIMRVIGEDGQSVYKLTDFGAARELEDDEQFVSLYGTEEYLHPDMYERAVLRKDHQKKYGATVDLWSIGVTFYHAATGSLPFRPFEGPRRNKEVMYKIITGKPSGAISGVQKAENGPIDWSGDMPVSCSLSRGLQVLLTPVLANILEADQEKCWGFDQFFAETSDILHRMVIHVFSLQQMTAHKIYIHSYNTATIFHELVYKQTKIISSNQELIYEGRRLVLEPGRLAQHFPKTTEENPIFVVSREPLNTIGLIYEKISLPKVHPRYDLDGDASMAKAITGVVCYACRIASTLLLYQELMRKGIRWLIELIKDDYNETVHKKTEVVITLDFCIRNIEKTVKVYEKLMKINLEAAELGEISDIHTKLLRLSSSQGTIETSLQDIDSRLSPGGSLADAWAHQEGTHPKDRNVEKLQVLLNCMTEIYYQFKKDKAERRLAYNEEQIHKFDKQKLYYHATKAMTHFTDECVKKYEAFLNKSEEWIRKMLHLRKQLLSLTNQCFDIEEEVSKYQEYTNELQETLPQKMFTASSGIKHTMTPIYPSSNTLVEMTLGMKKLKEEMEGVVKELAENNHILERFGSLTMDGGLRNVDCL

[12] = target: Tyrosine-protein kinase ZAP-70 (Homo sapiens) (UniProt P43403); experiment: Inhibition of ZAP70 assessed as residual activity at 10 uM using [33P-ATP] by radiometric filter binding assay
[13] = target: Tyrosine-protein kinase ABL1 (Homo sapiens) (UniProt P00519); experiment: Inhibition of ABL assessed as residual activity at 10 uM using [33P-ATP] by radiometric filter binding assay
[14] = target: Aurora kinase A (Homo sapiens) (UniProt O14965); experiment: Inhibition of aurora-A assessed as residual activity at 10 uM using [33P-ATP] by radiometric filter binding assay
Sequence of Aurora kinase A (Homo sapiens) (O14965 whole entry): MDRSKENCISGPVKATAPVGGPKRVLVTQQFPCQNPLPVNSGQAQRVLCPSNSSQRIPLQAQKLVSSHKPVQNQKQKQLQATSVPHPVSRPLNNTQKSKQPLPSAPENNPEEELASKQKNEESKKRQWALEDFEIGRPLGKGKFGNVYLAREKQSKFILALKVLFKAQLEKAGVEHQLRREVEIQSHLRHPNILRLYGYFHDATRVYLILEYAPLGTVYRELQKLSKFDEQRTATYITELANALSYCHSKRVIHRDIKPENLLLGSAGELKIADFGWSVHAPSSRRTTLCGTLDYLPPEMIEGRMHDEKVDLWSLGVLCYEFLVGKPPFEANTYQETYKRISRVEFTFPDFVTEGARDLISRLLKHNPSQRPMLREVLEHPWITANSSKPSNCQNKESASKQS

[15] = target: Cyclin-dependent kinase 2/cyclin A (Homo sapiens) (UniProt P24941+P20248+P78396); experiment: Inhibition of CDK2/Cyclin A assessed as residual activity at 10 uM using [33P-ATP] by radiometric filter binding assay; assay type: protein-complex assay
[16] = Inhibition of CK2 assessed as residual activity at 10 uM using [33P-ATP] by radiometric filter binding assay
[17] = target: Death-associated protein kinase 1 (Homo sapiens) (UniProt P53355); experiment: Inhibition of DAPK1 assessed as residual activity at 10 uM using [33P-ATP] by radiometric filter binding assay
[18] = target: Dual specificity tyrosine-phosphorylation-regulated kinase 3 (Homo sapiens) (UniProt O43781); experiment: Inhibition of DYRK3 assessed as residual activity at 10 uM using [33P-ATP] by radiometric filter binding assay
[19] = target: Ephrin type-A receptor 2 (Homo sapiens) (UniProt P29317); experiment: Inhibition of EPHA2 assessed as residual activity at 10 uM using [33P-ATP] by radiometric filter binding assay
[20] = target: Ephrin type-B receptor 2 (Homo sapiens) (UniProt P29323); experiment: Inhibition of EPHB2 assessed as residual activity at 10 uM using [33P-ATP] by radiometric filter binding assay
[21] = target: Ephrin type-B receptor 3 (Homo sapiens) (UniProt P54753); experiment: Inhibition of EPHB3 assessed as residual activity at 10 uM using [33P-ATP] by radiometric filter binding assay
[22] = target: Mitogen-activated protein kinase 3 (Homo sapiens) (UniProt P27361); experiment: Inhibition of ERK1 assessed as residual activity at 10 uM using [33P-ATP] by radiometric filter binding assay
[23] = target: Homeodomain-interacting protein kinase 2 (Homo sapiens) (UniProt Q9H2X6); experiment: Inhibition of HIPK2 assessed as residual activity at 10 uM using [33P-ATP] by radiometric filter binding assay
[24] = target: Inhibitor of nuclear factor kappa-B kinase subunit epsilon (Homo sapiens) (UniProt Q14164); experiment: Inhibition of IKKepsilon assessed as residual activity at 10 uM using [33P-ATP] by radiometric filter binding assay
[25] = target: Interleukin-1 receptor-associated kinase 4 (Homo sapiens) (UniProt Q9NWZ3); experiment: Inhibition of IRAK4 assessed as residual activity at 10 uM using [33P-ATP] by radiometric filter binding assay
[26] = target: Mitogen-activated protein kinase 8 (Homo sapiens) (UniProt P45983); experiment: Inhibition of JNK1 assessed as residual activity at 10 uM using [33P-ATP] by radiometric filter binding assay
Sequence of Mitogen-activated protein kinase 8 (Homo sapiens) (P45983 whole entry): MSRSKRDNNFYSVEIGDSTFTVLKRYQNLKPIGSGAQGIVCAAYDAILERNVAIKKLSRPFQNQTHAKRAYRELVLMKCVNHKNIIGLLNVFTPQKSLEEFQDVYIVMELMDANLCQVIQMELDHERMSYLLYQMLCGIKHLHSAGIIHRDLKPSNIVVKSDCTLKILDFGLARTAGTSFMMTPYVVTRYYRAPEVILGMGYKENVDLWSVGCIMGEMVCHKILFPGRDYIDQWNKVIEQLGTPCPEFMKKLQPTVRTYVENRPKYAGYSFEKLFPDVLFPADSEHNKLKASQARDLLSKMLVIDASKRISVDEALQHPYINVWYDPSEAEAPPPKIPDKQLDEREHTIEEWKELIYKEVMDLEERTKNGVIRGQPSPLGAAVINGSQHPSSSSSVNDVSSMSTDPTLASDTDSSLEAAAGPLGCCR

[27] = target: Tyrosine-protein kinase Lck (Homo sapiens) (UniProt P06239); experiment: Inhibition of Lck assessed as residual activity at 10 uM using [33P-ATP] by radiometric filter binding assay
[28] = target: Serine/threonine-protein kinase STK11 (Homo sapiens) (UniProt Q15831); experiment: Inhibition of LKB1 assessed as residual activity at 10 uM using [33P-ATP] by radiometric filter binding assay
[29] = target: Serine/threonine-protein kinase MARK2 (Homo sapiens) (UniProt Q7KZI7); experiment: Inhibition of MARK2 assessed as residual activity at 10 uM using [33P-ATP] by radiometric filter binding assay
[30] = target: Maternal embryonic leucine zipper kinase (Homo sapiens) (UniProt Q14680); experiment: Inhibition of MELK assessed as residual activity at 10 uM using [33P-ATP] by radiometric filter binding assay
Sequence of Maternal embryonic leucine zipper kinase (Homo sapiens) (Q14680 whole entry, looked up): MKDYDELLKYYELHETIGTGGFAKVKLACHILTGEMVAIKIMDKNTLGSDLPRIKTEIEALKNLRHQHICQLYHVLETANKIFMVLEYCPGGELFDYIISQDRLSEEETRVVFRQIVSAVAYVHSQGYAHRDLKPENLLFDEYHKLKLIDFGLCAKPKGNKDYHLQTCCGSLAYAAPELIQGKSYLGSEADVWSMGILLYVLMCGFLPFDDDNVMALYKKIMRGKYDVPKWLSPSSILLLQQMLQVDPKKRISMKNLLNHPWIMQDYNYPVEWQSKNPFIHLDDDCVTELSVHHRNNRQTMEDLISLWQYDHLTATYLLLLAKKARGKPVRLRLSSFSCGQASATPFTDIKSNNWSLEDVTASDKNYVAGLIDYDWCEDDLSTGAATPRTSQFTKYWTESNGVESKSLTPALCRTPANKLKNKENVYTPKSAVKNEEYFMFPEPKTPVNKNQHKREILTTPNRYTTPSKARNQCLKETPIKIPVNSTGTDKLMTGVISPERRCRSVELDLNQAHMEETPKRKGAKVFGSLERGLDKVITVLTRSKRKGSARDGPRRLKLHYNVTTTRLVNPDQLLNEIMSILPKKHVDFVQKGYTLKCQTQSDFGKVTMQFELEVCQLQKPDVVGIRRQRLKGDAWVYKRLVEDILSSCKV

[31] = target: Dual specificity mitogen-activated protein kinase kinase 6 (Homo sapiens) (UniProt P52564); experiment: Inhibition of MKK6 assessed as residual activity at 10 uM using [33P-ATP] by radiometric filter binding assay
[32] = target: Mitogen-activated protein kinase kinase kinase 9 (Homo sapiens) (UniProt P80192); experiment: Inhibition of MLK1 assessed as residual activity at 10 uM using [33P-ATP] by radiometric filter binding assay
Sequence of Mitogen-activated protein kinase kinase kinase 9 (Homo sapiens) (P80192 whole entry, looked up): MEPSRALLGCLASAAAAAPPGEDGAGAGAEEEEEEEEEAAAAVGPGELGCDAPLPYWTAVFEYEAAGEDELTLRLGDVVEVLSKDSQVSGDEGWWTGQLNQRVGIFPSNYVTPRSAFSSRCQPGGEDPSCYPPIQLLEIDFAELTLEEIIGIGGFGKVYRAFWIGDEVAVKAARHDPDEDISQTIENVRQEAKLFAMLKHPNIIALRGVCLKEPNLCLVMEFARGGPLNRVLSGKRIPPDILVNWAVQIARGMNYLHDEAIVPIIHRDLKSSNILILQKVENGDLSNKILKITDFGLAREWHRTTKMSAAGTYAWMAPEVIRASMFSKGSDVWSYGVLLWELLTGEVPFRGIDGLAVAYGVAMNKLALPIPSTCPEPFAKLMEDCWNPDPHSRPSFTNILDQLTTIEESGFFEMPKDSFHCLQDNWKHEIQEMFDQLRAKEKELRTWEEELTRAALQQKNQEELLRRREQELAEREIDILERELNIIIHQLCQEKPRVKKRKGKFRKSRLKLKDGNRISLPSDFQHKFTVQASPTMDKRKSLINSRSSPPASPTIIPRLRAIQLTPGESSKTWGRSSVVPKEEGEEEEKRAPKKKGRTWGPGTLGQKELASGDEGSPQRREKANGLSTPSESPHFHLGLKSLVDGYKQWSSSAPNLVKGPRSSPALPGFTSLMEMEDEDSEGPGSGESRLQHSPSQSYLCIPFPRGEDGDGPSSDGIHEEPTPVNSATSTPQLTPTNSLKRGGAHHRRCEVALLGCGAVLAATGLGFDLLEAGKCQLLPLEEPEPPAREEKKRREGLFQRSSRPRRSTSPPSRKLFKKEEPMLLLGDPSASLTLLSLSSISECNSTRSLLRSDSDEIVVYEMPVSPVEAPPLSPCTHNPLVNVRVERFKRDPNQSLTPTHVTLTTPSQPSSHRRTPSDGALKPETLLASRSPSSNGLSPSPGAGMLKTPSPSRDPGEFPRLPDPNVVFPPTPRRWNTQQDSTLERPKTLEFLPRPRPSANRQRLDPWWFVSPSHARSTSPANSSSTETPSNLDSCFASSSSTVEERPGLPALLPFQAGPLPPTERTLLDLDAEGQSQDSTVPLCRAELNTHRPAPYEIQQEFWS

[33] = target: Ribosomal protein S6 kinase alpha-5 (Homo sapiens) (UniProt O75582); experiment: Inhibition of MSK1 assessed as residual activity at 10 uM using [33P-ATP] by radiometric filter binding assay

## Cc1ccc(F)cc1-c1nc2[nH]nc(N)c2c2c1CCCC2
[1]
  Activity: 82%
[2]
  Activity: 76%
[3]
  Activity: 93%
[4]
  Activity: 108%
[5]
  Activity: 63%
[6]
  Activity: 93%
[7]
  Activity: 97%
[8]
  Activity: 17%
[9]
  Activity: 103%
[10]
  Activity: 96%
[11]
  Activity: 107%
[12]
  Activity: 107%
[13]
  Activity: 45%
[14]
  Activity: 68%
[15]
  Activity: 87%
[16]
  Activity: 93%
[17]
  Activity: 101%
[18]
  Activity: 95%
[19]
  Activity: 29%
[20]
  Activity: 4%
[21]
  Activity: 7%
[22]
  Activity: 97%
[23]
  Activity: 98%
[24]
  Activity: 96%
[25]
  Activity: 55%
[26]
  Activity: 94%
[27]
  Activity: 8%
[28]
  Activity: 52%
[29]
  Activity: 78%
[30]
  Activity: 64%
[31]
  Activity: 86%
[32]
  Activity: 63%
[33]
  Activity: 75%
